Reference: patent US11156599B2, “Assay for telomere length regulators” (The Johns Hopkins University, priority 2015, dated 2021)

Legend:
SL13 cells = test: Telomere Southern blot after telomerase (mTR and mTERT) overexpression; assay type: cell-based, mouse; details: lentivirus expressing mTR and mTERT, 2 or 5 days in culture
Protocol: To examine the role of ATM in telomere elongation by an independent method, telomerase was overexpressed in the cell line, in the presence of ATM inhibition. It has been shown that overexpressing telomerase elongates telomere lengths in human cells. Cells were treated with KU55933 and then transduced with a lentivirus expressing both mTR and mTERT and grown for 2 or 5 days in culture and telomere lengths were assayed by Southern blot. Telomere lengths in cells overexpressing telomerase were rapidly elongated in just 5 days (data not shown). […] In addition, as discussed below, when cells are grown for several days, ATR may also compensate for the loss of ATM. […]
To measure telomere lengths by Southern blot, genomic DNA was extracted from cell pellets collected at different population doublings using the Puregene Core Kit A™ (Qiagen). […] Labeled probe was counted and 10^6 counts/ml (telomere probe) or 10^4 counts/ml (ladder) was denatured at 100° C. for 5 minutes and added to the pre-hybridization solution and hybridized overnight at 65° C. Membranes were washed 3× 15 minutes each in 6× SSC and 1% SDS at 65° C., and 3× 15 minutes each in 1× SSC and 1% SDS at 65° C. and exposed to a phosphorimager screen and detected on a Fuji phosphorimager. […]

[1] = system: de novo telomere addition on chr4 in SL13 cells; test: ADDIT assay (Addition of de novo initiated telomeres): modified STELA PCR and PacBio sequencing; assay type: cell-based, mouse; details: for de novo telomere addition compared to DMSO control: cells treated with DMSO, KU55933, Olaparib or both drugs
Text: To examine potential mammalian genes that regulate telomere length, an assay was developed that allows visualization of telomere addition in vivo, referred here as ADDIT (Addition of de novo initiated telomeres). In a chromosomally stable CASTEiJ mouse fibroblast cell line, chromosome 4 (chr4) was modified to generate an internal 480 bp telomere ‘seed’ sequence followed by a unique I-Sce1 endonuclease cut site (FIG. 1A). The length of seed sequence was based on an early study showing that 400 bp of telomere repeats can act as functional telomeres. Using Southern blot analysis, two independent HYG-positive clones were identified, clone 1L and 1M, with a single chr4 allele correctly modified (data not shown).
To better visualize the telomere addition on the I-Sce1 cut telomere seed, the single telomere length analysis (STELA) (Baird et al., 2004, Hum Mol Genet 13, 1515-1524), a PCR-based approach that can measure telomere lengths from individual chromosome ends was modified. The STELA assay employs annealing and ligation of a linker, ‘telorette’, with TTAGGG and a unique 20-nucleotide sequence to the G-rich 3′ telomere overhang followed by PCR of the telomere from a ‘teltail’ primer and primer in the HYG sequence on the engineered chromosome (FIG. 2). The PCR product lengths will be proportional to the telomere lengths at the cleaved chr4 allele. As a control, to amplify the un-extended cut chromosome in vitro, a different linker, ‘IScerette’ was designed, which has a 4-nt homology to the 4-nt 3′ overhang created by the I-Sce1 endonuclease at the cleavage site (FIG. 2). […] This in vitro IScerette PCR product serves as a marker for the base line length of the cut, unextended telomere seed sequence.
To further verify the longer STELA PCR products represent de novo telomere addition, the PCR products were sequenced with Pacific Biosciences (PACBIO®) next generation sequencing technology. The PACBIO® platform produces longer reads and is less GC bias compared to other next generation sequencing platforms. While errors were present in the sequence as expected, the telomere repeats were easily recognizable. All of the reads from the PACBIO® were filtered and only those that had unique HYG sequence followed by telomere sequence and the ‘teltail’ primer sequence were examined. This assures that only full length of STELA PCR products were analyzed. The reads were then aligned at the junction between the HYG sequence and the telomere repeats. Wild-type TTAGGG repeats were colored orange and variant telomere repeats were colored in darker orange (FIG. 3A). Some of these variants arose due to errors in sequencing. An error rate similar to the published error rate of PACBIO® sequencing, 10-15% was observed. The errors were uniformly distributed over the reference sequence, dominated by point insertions and deletions, as expected for PACBIO® sequencing. There were three regions of divergent sequence in the original construct that are evident as darker orange stripes in the aligned reads (see for reference, in vitro IScelrette). These are small variation in TTAGGG sequence in the original SL13 clone and serve as useful internal reference points.
The original STELA protocol used for human cells (Baird et al., 2004, Hum Mol Genet 13, 1515-1524) was modified to measure telomere lengths on the de novo end of chr4 in SL13 cells. Briefly, genomic DNA was extracted using Puregene Core Kit A ^TM (Qiagen). 4 μg of genomic DNA was digested with SphI (NEB) and later diluted to 10 ng/μl in water. For the in vitro IScerette sample, genomic DNA was digested with SphI and I-SceI (NEB) prior to ligation. The ligation was carried out at 35° C. for at least 12 hrs in a volume of 10 μl containing 10 ng of digested genomic DNA, 0.9 μM of telorette linkers (mixture of telorette 1 to 6) or IScerette linker and 0.5 U of T4 DNA ligase (NEB) in 1× T4 ligation buffer. […]

SMILES | telomere elongation by telomerase overexpression (SL13 cells) | addition of de novo telomere repeats beyond the I-Sce1 site ([1]; 48 hrs doxycycline, 10 μM KU55933 or 5 nM siATM) | de novo telomere addition compared to DMSO control ([1]; different STELA primers) | percentage of reads with telomere elongation ([1]; cells treated with Olaparib or both drugs, different STELA primers) [%]
O=c1cc(-c2cccc3c2Sc2ccccc2S3)oc(N2CCOCC2)c1 [KU55933] | significantly blocked the telomere elongation | fewer and significantly shorter elongation products | less de novo telomere addition compared to DMSO control | –
O=C(c1cc(Cc2n[nH]c(=O)c3ccccc23)ccc1F)N1CCN(C(=O)C2CC2)CC1 [Olaparib] | – | – | significantly higher percentage of de novo telomere addition | 22.4
